Results published in US9976141B2, “Compositions and methods for inhibiting gene expression of Hif2alpha” (Arrowhead Madison Inc., priority 2015, dated 2018).
Strand notation (5' to 3'): a small letter for the sugar, then the base; units joined by * are phosphorothioate-linked, units joined directly phosphodiester-linked; [ ] holds rarer units or linkages, { } end groups; capitals alone tell only the bases. [UNA-N] = unlocked nucleic acid (N: the base); [invdT] = inverted (3'-3') thymidine; d = 2'-deoxy (DNA); m = 2'-O-methyl; f = 2'-fluoro

How the values were obtained:
[1] = tested on: A498-SEAP ccRCC orthotopic kidney tumor; assay: HiF2α RNAi trigger/sunitinib combination study: tumor size and SEAP expression (Table 10B); type: in vivo, mice; details: trigger = Duplex AD1884 with polymer 064 (125 μg polymer) iv every 4 weeks, 4 doses, sunitinib oral gavage, 3 cycles
Protocol: HiF2α RNAi trigger-delivery polymer conjugate (125 μg polymer) was prepared using protocol 7 Duplex ID No. AD1884 and polymer 064. HiF2α RNAi trigger-delivery polymer conjugate was dosed every 4 weeks by iv injection, 4 doses total. Sunitinib (Malate salt) obtained from LC laboratories was suspended in Ora-plus/Ora sweet (50:50, vol:vol). […]
Tumor growth rates were evaluated by serum SEAP collected at 5-7 days interval during treatment. Tumor weight and volume was determined at necropsy. Gross tumor morphology and H&E histopathology were evaluated.

[2] = tested on: human (tumor) Hif2α (EPAS1) mRNA; assay: HiF2α RNAi trigger/sunitinib combination study: HiF2α expression in RCC tumors (Table 10A); type: in vivo; details: 4 doses, 3 cycles
[3] = tested on: human EPAS1 (Hif2α) cDNA in psiCHECK2 (Renilla luciferase/EPAS1 fusion mRNA) in Hep3B cells; assay: Hif2α RNAi trigger EC50 determination, dual-luciferase reporter assay; type: cell-based; details: UNA modified at site 6 or 7, EPAS1-psiCHECK2, same conditions, read-out: EC50 UNAs EC50
Source text: Candidate sequences were identified by in silico analysis and screened as chemically modified canonical siRNAs in vitro. For screening purposes, the human EPAS1 (Hif2α) cDNA sequence (accession #NM 001430) was synthesized and cloned (DNA 2.0, Menlo Park, Calif.) into a commercially-available reporter-based screening plasmid, psiCHECK2 (Promega, Madison, Wis.) which generated a Renilla luciferase/EPAS1 fusion mRNA. For RNAi trigger efficacy evaluation, Hep3B cells, a human hepatocellular carcinoma line, were plated at 10,000 cells per well in 96-well format. Each of the 187 EPAS1 RNAi triggers, in two subsets, was co-transfected at two concentrations, 1 nM and 0.1 nM, with 25 ng EPAS1-psiCHECK2 plasmid DNA per well and 0.2 μL LipoFectamine 2000 (Life Technologies) per well. Gene knockdown was determined by measuring Renilla luciferase levels normalized to the levels of constitutively-expressed firefly luciferase, also present on the psiCHECK-2 plasmid, using the Dual Luciferase Reporter Assay (Promega, Madison, Wis.) Table 5.
The eight best canonical sequences were further evaluated by determining the EC50 concentration. Each trigger was assessed for knockdown under the same conditions and assays as above, but at 10 different concentrations ranging from 0.00051 nM to 10 nM. EC50 were determined using GraphPad Prism software. Each of the top five canonical sequences were modified to contain UNA at sites 6 and 7. These triggers, along with their parent canonical sequences, were evaluated side-by-side for EC50 concentration determination using the same conditions and assays as above, Table 6.

[4] = tested on: human (tumor) Hif2α (EPAS1) mRNA; assay: Hif2α knockdown in orthotopic RCC tumor bearing mice, single injection of RNAi trigger-delivery polymer conjugate, RT-qPCR (Table 7); type: in vivo; details: RNAi trigger 80 μg, polymer 126 400 μg; single tail vein injection; relative to isotonic glucose
How it was run: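 A single intravenous dose of Hif2α RNAi trigger–delivery polymer conjugate, or isotonic glucose vehicle, was given to nude mice with subcapsular A498-SEAP renal tumours (about 5–6 weeks old). At the indicated time, tumour RNA was assayed by biplex TaqMan qPCR against CycA, and relative expression was calculated by ΔΔCT versus vehicle.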

[5] = tested on: human (tumor) Hif2α (EPAS1) mRNA; assay: Hif2α expression in RCC tumor bearing mice after single injection of RGD targeted conjugates, 72 h, RT-qPCR (Table 11); type: in vivo; details: trigger 80 μg, polymer 126 280 μg
Protocol: Female athymic nude mice were anesthetized with ˜3% isoflourane and placed in the right lateral decubitus position. A small, 0.5-1 cm, longitudinally abdominal incision in the left flank was made. Using a moist cotton swab, the left kidney was lifted out of the peritoneum and gently stabilized. Just before injection, a 1.0 ml syringe was filled with the cell/Matrigel mixture and a 27 gauge needle catheter was attached to the syringe tip. The filled syringe was then attached to a syringe pump (Harvard Apparatus, model PHD2000) and primed to remove air. The tip of a 27-gauge needle catheter attached to a syringe was inserted just below the renal capsule near the caudal pole and the tip of the needle was then carefully advanced cranially along the capsule 3-4 mm. A 10 μl aliquot of 2:1 (vol:vol) cell/matrigel mixture containing about 300,000 cells was slowly injected into the kidney parenchyma using a syringe pump. The needle was left in the kidney for 15-20 seconds to ensure the injection was complete. The needle was then removed from the kidney and a cotton swab was placed over the injection site for 30 seconds to prevent leakage of the cells or bleeding. The kidney was then gently placed back into the abdomen and the abdominal wall was closed. Serum was collected every 7-14 days after implantation to monitor tumor growth using a commercial SEAP assay kit. For most studies, tumor mice were used 5-6 weeks after implantation, when tumor measurements were typically around 4-8 mm.
In preparation for quantitative PCR, total RNA was isolated from tissue samples homogenized in TriReagent (Molecular Research Center, Cincinnati, Ohio) following the manufacturer's protocol. Approximately 500 ng RNA was reverse-transcribed using the High Capacity cDNA Reverse Transcription Kit (Life Technologies). For human (tumor) Hif2α (EPAS1) expression, pre-manufactured TaqMan gene expression assays for human Hif2α (Catalog #4331182) and CycA (PPIA) Catalog #: 4326316E) were used in biplex reactions in triplicate using TaqMan Gene Expression Master Mix (Life Technologies) or VeriQuest Probe Master Mix (Affymetrix). For human (tumor) VegFa (VEGFA) expression, pre-manufactured TaqMan gene expression assays for human VegFa (Catalog #4331182, Assay ID: Hs00900055) and CycA (Part#: 4326316E) were used in biplex reactions in triplicate using TaqMan Gene Expression Master Mix (Life Technologies) or VeriQuest Probe Master Mix (Affymetrix). Quantitative PCR was performed by using a 7500 Fast or StepOnePlus Real-Time PCR system (Life Technologies). The ΔΔCT method was used to calculate relative gene expression.
RGD targeted HiF2α-RNAi trigger delivery polymer conjugates were formed using polymer 126, 100A, or 006. The RNAi trigger, μg indicates the quantity of trigger reacted with polymer. The polymer was modified with the indicated RGD mimic and PEG modifying agents as described above. Kidney RCC tumor-bearing mice were generated as described and treated with a single tail vein injection of isotonic glucose (G1) or the indicated Hif2α RNAi trigger-delivery polymer conjugate. Mice were euthanized 72 h (day 4) after injection and total RNA was prepared from kidney tumor using Trizol reagent following manufacturer's recommendation. Relative HiF2α mRNA levels were determined by RT-qPCR as described and compared to mice treated with delivery buffer (isotonic glucose) only (Table 11).

Molecule | EC50 [3] [pM] | also measured
CCN(CC)CCNC(=O)c1c(C)[nH]c(/C=C2\C(=O)Nc3ccc(F)cc32)c1C [sunitinib, Sunitinib] | – | Tumor volume ([1]; at necropsy): 2113.5 ± 368 mm3; Tumor weight ([1]; at necropsy): 2385.7 ± 845 mg; Fold increase in SEAP ([1]; serum SEAP, overall): 18.1 ± 9.8; Relative HiF2α expression levels decreased ([2]; DPC 125 μg polymer iv every 4 weeks, sunitinib oral gavage 5 days/week 2 weeks on, 2 weeks off): 11.4%; HiF2α expression, Relative expression ([2]; trigger = Duplex AD1884 with polymer 064 (125 μg polymer) iv every 4 weeks, sunitinib oral gavage 5 days/week, 2 weeks on/2 off): 0.886
AD00988: Hif2α RNAi trigger, XD-02335 sequence modified to contain UNA at site 6 (antisense dTfGmUfAmA[UNA-A]mAfCmAfAmUfUmGfUmGfUmAfCmUdT*dT; sense fAmGfUmAfCmAfCmAfAmUfUmGfUmUfUmUfAmCfA[invdT]) | 841 | –
AD00989: Hif2α RNAi trigger, XD-02371 sequence modified to contain UNA at site 6 (antisense dTfCmUfAmG[UNA-C]mAfAmCfAmAfAmAfCmCfUmUfAmAdT*dT; sense fUmUfAmAfGmGfUmUfUmUfGmUfUmGfCmUfAmGfA[invdT]) | 375 | –
AD00990: Hif2α RNAi trigger, XD-02404 sequence modified to contain UNA at site 6 (antisense dTfAmAfAmU[UNA-C]mGfUmUfAmCfGmUfUmGfAmCfAmGdT*dT; sense dTfGmAfGmGfAmGfCmUfUmGfUmGfUmGfUmUfCmGdT*dT) | 153 | –
AD00991: Hif2α RNAi trigger, XD-02407 sequence modified to contain UNA at site 6 (antisense dTfUmUfCmA[UNA-U]mGfAmAfAmUfCmGfUmUfAmCfGmUdT*dT; sense fAmCfGmUfAmAfCmGfAmUfUmUfCmAfUmGfAmAfA[invdT]) | 350 | –
AD00992: Hif2α RNAi trigger, XD-02415 sequence modified to contain UNA at site 6 (antisense dTfAmAfGmU[UNA-U]mAfAmGfCmUfCmCfCmAfUmAfCmAdT*dT; sense fUmGfUmAfUmGfGmGfAmGfCmUfUmAfAmCfUmUfA[invdT]) | 142 | –
AD00993: Hif2α RNAi trigger, XD-02335 sequence modified to contain UNA at site 7 (antisense dTfGmUfAmAfA[UNA-A]fCmAfAmUfUmGfUmGfUmAfCmUdT*dT; sense fAmGfUmAfCmAfCmAfAmUfUmGfUmUfUmUfAmCfA[invdT]) | 550 | –
AD00994: Hif2α RNAi trigger, XD-02371 sequence modified to contain UNA at site 7 (antisense dTfCmUfAmGfC[UNA-A]fAmCfAmAfAmAfCmCfUmUfAmAdT*dT; sense fUmUfAmAfGmGfUmUfUmUfGmUfUmGfCmUfAmGfA[invdT]) | 80.7 | –
AD00995: Hif2α RNAi trigger, XD-02404 sequence modified to contain UNA at site 7 (antisense dTfAmAfAmUfC[UNA-G]fUmUfAmCfGmUfUmGfAmCfAmGdT*dT; sense dTfGmAfGmGfAmGfCmUfUmGfUmGfUmGfUmUfCmGdT*dT) | 169 | –
AD00996: Hif2α RNAi trigger, XD-02407 sequence modified to contain UNA at site 7 (antisense dTfUmUfCmAfU[UNA-G]fAmAfAmUfCmGfUmUfAmCfGmUdT*dT; sense fAmCfGmUfAmAfCmGfAmUfUmUfCmAfUmGfAmAfA[invdT]) | 118 | –
AD00997: Hif2α RNAi trigger, XD-02415 sequence modified to contain UNA at site 7 (antisense dTfAmAfGmUfU[UNA-A]fAmGfCmUfCmCfCmAfUmAfCmAdT*dT; sense fUmGfUmAfUmGfGmGfAmGfCmUfUmAfAmCfUmUfA[invdT]) | 183 | –
AD01031: Hif2α RNAi trigger duplex used in the multi-dose conjugate of Example 15 (antisense TUUCAUGAAAUCGUUACGUTT; sense ACGUAACGAUUUCAUGAAAT; Hif2alpha RNAi agent antisense strand; modified_base 2,4,6,8,10,12,14,16,18 /mod_base = “2′-deoxy-2′-fluoro corresponding nucleoside”; modified_base 3,5,7,9,11,13,15,17,19 /mod_base = “2′-O-methyl corresponding nucleoside”; modified_base 21 /mod_base = “5′-phosphorothioate corresponding nucleotide”; Hif2alpha RNAi agent sense strand; modified_base 1,3,5,7,9,11,13,15,17,19 /mod_base = “2′-deoxy-2′-fluoro corresponding nucleoside”; modified_base 2,4,6,8,10,12,14,16,18 /mod_base = “2′-O-methyl corresponding nucleoside”; modified_base 20 /mod_base = “3′-3′-linked nucleotide”; modified_base 1 /mo) | – | Relative Expression day 4 (Hif2α mRNA in kidney tumor) [4]: 0.20; Relative Expression day 4 (Hif2α) ([5]; RGD-PEG8-ACit-PABC-PNP 0.4×, PEG6-ACit-PABC-PNP): 0.311; Relative Expression day 4 (Hif2α) ([5]; RGD-PEG8-HyNic 0.5×, PEG12-ACit-PABC-PNP): 0.300
